This is an account of results in the supplement of paper PMC11208160.
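Note: IS621 bridge recombinase in Escherichia coli cells against a fixed T5 target plasmid.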

The nature of the data set: recombinant UMI read abundance after kanamycin selection (control-corrected) (log10(CPM+1)); higher = more efficient recombination; extreme values may be limits of the assay; sequences stand for … in AGTGCAGAGAAAATCGGCCAGTTTTCTCTGCCTGCAGTCCGCATGCCGTGGGACCCCTTGGGTTCTAACCTGTTGCCTAGATTTATGCAGCGGACTGCCTTTCTCCCAAAGTGATAAACCGG…AGGTTGGTTTCACT; site = the 11-nt donor. An outline of the steps: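 Under IPTG (0.07 mM) plus kanamycin, or without selection, Escherichia coli carrying a UMI-tagged donor and donor-binding-loop pair library and a target plasmid for the IS621 bridge recombinase were plated in two replicates. Recombinant UMIs were PCR-amplified across the donor–target junction and sequenced. Counts were converted to CPM, averaged over replicates, scaled by control-derived factors and reported as log10(CPM+1).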
Take “CGTGAAACATGGACCGGTTTTCCCGGTAATCCGTATTTGTT (site CGTGCAACTAA)”: the “recombinant UMI read abundance (log10)” value was 0.
As for “CGTGAAACATGGACCGGTTTTCCCGGTAATCCGTATTTGTT (site CGTGGAACTAA)”, the “recombinant UMI read abundance (log10)” value was 0.
As for “CGTGAAACATGGACCGGTTTTCCCGGTAATCCGTATTTGTT (site CGTGTAACTAA)”, the figure is 0.0209; as for “CGTGAGGCATGGACCGGTTTTCCCGGTAATCCGTATTTGCC (site CGTGAGGCTGG)”, 0.525.
As for “CGTGCCCCATGGACCGGTTTTCCCGGTAATCCGTATTTGGC (site CGTGCCCCTGC)”, the figure is 0.
The same measure for “CGTGGAACATGGACCGGTTTTCCCGGTAATCCGTATTTGCG (site CGTGGAACTCG)”: 2.05; for “CGTGGAGCATGGACCGGTTTTCCCGGTAATCCGTATTTGTT (site CGTGGAACTAA)”: 1.66.
Regarding “CGTGGAGCATGGACCGGTTTTCCCGGTAATCCGTATTTGTT (site CGTGGACCTAA)”, the “recombinant UMI read abundance (log10)” value is 0.00893.
As for “CGTGGAGCATGGACCGGTTTTCCCGGTAATCCGTATTTGTT (site CGTGGAGCTAA)”, the figure is 2.02; as for “CGTGGAGCATGGACCGGTTTTCCCGGTAATCCGTATTTGTT (site CGTGGATCTAA)”, 1.23; as for “CGTGGATCATGGACCGGTTTTCCCGGTAATCCGTATTTGTT (site CGTGGAACTAA)”, 0.0027.
The same measure for “CGTGGATCATGGACCGGTTTTCCCGGTAATCCGTATTTGTT (site CGTGGACCTAA)”: 0.0255; for “CGTGGATCATGGACCGGTTTTCCCGGTAATCCGTATTTGTT (site CGTGGAGCTAA)”: 0; for “CGTGGATCATGGACCGGTTTTCCCGGTAATCCGTATTTGTT (site CGTGGATCTAA)”: 2.34.
As for “CGTGGTACATGGACCGGTTTTCCCGGTAATCCGTATTTGTT (site CGTGGAACTAA)”, the figure is 0.177.
As for “CGTGGTACATGGACCGGTTTTCCCGGTAATCCGTATTTGTT (site CGTGGCACTAA)”, the “recombinant UMI read abundance (log10)” value was 0.0912.
Turning to “CGTGGTACATGGACCGGTTTTCCCGGTAATCCGTATTTGTT (site CGTGGGACTAA)”, the “recombinant UMI read abundance (log10)” value was determined as 0.
As for “CGTGGTACATGGACCGGTTTTCCCGGTAATCCGTATTTGTT (site CGTGGTACTAA)”, the figure is 1.25; as for “CGTGTGGCATGGACCGGTTTTCCCGGTAATCCGTATTTGCT (site CGTATGGCTAG)”, 1.01; as for “CGTGTGGCATGGACCGGTTTTCCCGGTAATCCGTATTTGCT (site CGTCTGGCTAG)”, 0.00526.
The same measure for “CGTGTGGCATGGACCGGTTTTCCCGGTAATCCGTATTTGCT (site CGTGTGGCTAG)”: 3.26; for “CGTGTGGCATGGACCGGTTTTCCCGGTAATCCGTATTTGCT (site CGTTTGGCTAG)”: 0; for “CGTGTTGCATGGACCGGTTTTCCCGGTAATCCGTATTTGTC (site CGTGTTGCTGA)”: 2.08.
As to “CGTTAGGCATGGACCGGTTTTCCCGGTAATCCGTATTTGAG (site CGTTAGACTCT)”, the “recombinant UMI read abundance (log10)” value came out at 0.855.
The same measure for “CGTTAGGCATGGACCGGTTTTCCCGGTAATCCGTATTTGAG (site CGTTAGCCTCT)”: 0.00789; for “CGTTAGGCATGGACCGGTTTTCCCGGTAATCCGTATTTGAG (site CGTTAGGCTCT)”: 1.23.
In the case of “CGTTAGGCATGGACCGGTTTTCCCGGTAATCCGTATTTGAG (site CGTTAGTCTCT)”, the “recombinant UMI read abundance (log10)” value was 0.173.
Consider “CGTTATCCATGGACCGGTTTTCCCGGTAATCCGTATTTGTT (site CGGAATCCTAA)”, for which the “recombinant UMI read abundance (log10)” value is 0.
The same measure for “CGTTATCCATGGACCGGTTTTCCCGGTAATCCGTATTTGTT (site CGTTATCCTAA)”: 0.375.
As for “CGTTCATCATGGACCGGTTTTCCCGGTAATCCGTATTTGCT (site CGATCATCTAG)”, the “recombinant UMI read abundance (log10)” value worked out at 0.
As for “CGTTCATCATGGACCGGTTTTCCCGGTAATCCGTATTTGCT (site CGCTCATCTAG)”, the “recombinant UMI read abundance (log10)” value was 1.41.
The same measure for “CGTTCATCATGGACCGGTTTTCCCGGTAATCCGTATTTGCT (site CGGTCATCTAG)”: 0; for “CGTTCATCATGGACCGGTTTTCCCGGTAATCCGTATTTGCT (site CGTTCATCTAG)”: 1.35.
As to “CGTTCCCCATGGACCGGTTTTCCCGGTAATCCGTATTTGTA (site AGTTCCCCTTA)”, the “recombinant UMI read abundance (log10)” value was found to be 0.00297.
Turning to “CGTTCCCCATGGACCGGTTTTCCCGGTAATCCGTATTTGTA (site CGTTCCCCTTA)”, the “recombinant UMI read abundance (log10)” value stood at 0.531.
For “CGTTCCCCATGGACCGGTTTTCCCGGTAATCCGTATTTGTA (site GGTTCCCCTTA)”, the “recombinant UMI read abundance (log10)” value is 0.00349.
As for “CGTTCCCCATGGACCGGTTTTCCCGGTAATCCGTATTTGTA (site TGTTCCCCTTA)”, the figure is 0.00473.
In the case of “CGTTCGGCATGGACCGGTTTTCCCGGTAATCCGTATTTGCT (site CGTTAGGCTAG)”, the “recombinant UMI read abundance (log10)” value is 0.00568.
As for “CGTTCGGCATGGACCGGTTTTCCCGGTAATCCGTATTTGCT (site CGTTCGGCTAG)”, the figure is 1.63; as for “CGTTCGGCATGGACCGGTTTTCCCGGTAATCCGTATTTGCT (site CGTTGGGCTAG)”, 0.00466.
The same measure for “CGTTCGGCATGGACCGGTTTTCCCGGTAATCCGTATTTGCT (site CGTTTGGCTAG)”: 0; for “CGTTGCTCATGGACCGGTTTTCCCGGTAATCCGTATTTGAT (site CGTTGCTCTAT)”: 1.8.
The same measure for “CGTTGTACATGGACCGGTTTTCCCGGTAATCCGTATTTGCT (site CGTTGTACTAG)”: 1.39.
On to “CGTTTCGCATGGACCGGTTTTCCCGGTAATCCGTATTTGCT (site CGTTTAGCTAG)”, for which the “recombinant UMI read abundance (log10)” value turned out to be 0.
Regarding “CGTTTCGCATGGACCGGTTTTCCCGGTAATCCGTATTTGCT (site CGTTTCGCTAG)”, the “recombinant UMI read abundance (log10)” value amounted to 0.892.
As for “CGTTTCGCATGGACCGGTTTTCCCGGTAATCCGTATTTGCT (site CGTTTGGCTAG)”, the figure is 0; as for “CGTTTCGCATGGACCGGTTTTCCCGGTAATCCGTATTTGCT (site CGTTTTGCTAG)”, 0.
As for “CGTTTGACATGGACCGGTTTTCCCGGTAATCCGTATTTGAG (site CGTTAGACTCT)”, the figure is 0.00643; as for “CGTTTGACATGGACCGGTTTTCCCGGTAATCCGTATTTGAG (site CGTTCGACTCT)”, 0.
With “CGTTTGACATGGACCGGTTTTCCCGGTAATCCGTATTTGAG (site CGTTGGACTCT)”, the “recombinant UMI read abundance (log10)” value was 0.0522.
As for “CGTTTGACATGGACCGGTTTTCCCGGTAATCCGTATTTGAG (site CGTTTGACTCT)”, the figure is 1.03; as for “CGTTTGGCATGGACCGGTTTTCCCGGTAATCCGTATTTGCA (site CGTTTGGCTAG)”, 0.
Turning to “CGTTTGGCATGGACCGGTTTTCCCGGTAATCCGTATTTGCA (site CGTTTGGCTCG)”, the “recombinant UMI read abundance (log10)” value stood at 0.024.
The same measure for “CGTTTGGCATGGACCGGTTTTCCCGGTAATCCGTATTTGCA (site CGTTTGGCTGG)”: 0.
The same measure for “CGTTTGGCATGGACCGGTTTTCCCGGTAATCCGTATTTGCA (site CGTTTGGCTTG)”: 0.562; for “CTAACAGCATGGACCGGTTTTCCCGGTAATCCGTATTTGTA (site CTAACAGCTTA)”: 2.48.
As for “CTAACATCATGGACCGGTTTTCCCGGTAATCCGTATTTGCT (site CTAACATCTAG)”, the figure is 2.12; as for “CTAACTGCATGGACCGGTTTTCCCGGTAATCCGTATTTGTC (site CTAACTGCTGA)”, 2.12; as for “CTAAGACCATGGACCGGTTTTCCCGGTAATCCGTATTTGCG (site CTAAGACCTCG)”, 0.0114.
With “CTACAACCATGGACCGGTTTTCCCGGTAATCCGTATTTGAT (site CTACAACCTAT)”, the “recombinant UMI read abundance (log10)” value came to 0.
The same measure for “CTACCATCATGGACCGGTTTTCCCGGTAATCCGTATTTGAC (site CTACCATCTGT)”: 2.39.
The same measure for “CTACCATCATGGACCGGTTTTCCCGGTAATCCGTATTTGAC (site CTAGTATCTGT)”: 0; for “CTACCGCCATGGACCGGTTTTCCCGGTAATCCGTATTTGAC (site CTACCGCCTGT)”: 0.322.
As for “CTACCGCCATGGACCGGTTTTCCCGGTAATCCGTATTTGCG (site CTACCGCCTCG)”, the “recombinant UMI read abundance (log10)” value is 0.268.
As for “CTACGAACATGGACCGGTTTTCCCGGTAATCCGTATTTGGG (site CTACGAACTCC)”, the figure is 1.11; as for “CTACGCCCATGGACCGGTTTTCCCGGTAATCCGTATTTGTG (site CTACGCCCTCA)”, 0.232; as for “CTACGTCCATGGACCGGTTTTCCCGGTAATCCGTATTTGAA (site CTACGTCCTTT)”, 1.23.
In the case of “CTACTAACATGGACCGGTTTTCCCGGTAATCCGTATTTGCA (site CTACTAACTTA)”, the “recombinant UMI read abundance (log10)” value was 1.4.
